According to patent US11655254B2, “Substituted piperazines as BTK inhibitors” (HUTCHISON MEDIPHARMA LIMITED, priority 2020, dated 2023):

Legend:
[1] = target: Phosphorylated BTK in Ramos cells (Homo sapiens (Human), UniProt Q06187); assay: Determination of phosphorylated BTK in Ramos cells (BTK phospho-Y223 HTRF); assay type: cell-based; conditions: Ramos cells stimulated with immunoglobulin M 10 μg/mL and hydrogen peroxide 3.3 mM, 10 minutes
Procedure: Ramos cells were starved in PRMI 1640 medium with 1% FBS for 2 hours. The starved Ramos cells were diluted with Hank's balanced salt solution to 5.0×10^6 cells/ml, seeded in a 96-well plate with 20 μL/well (1.0×10^5 cells/well), and cultured in a 5% CO2, 37° C. cell incubator. […]
The 384 well plate incubated overnight in the constant temperature incubator was taken out to detect the luminescence signal using the Envision microwell plate reader at the […]. The reading value at 665 nm/615 nm of each well multiplied by 10^4 was used as the signal value of each well.
The average signal value of the wells supplemented with the mixed solution of human immunoglobulin M (final concentration was 10 μg/mL) and hydrogen peroxide (final concentration was 3.3 mM) without the test compound was regarded as the high value, and the average signal value of the wells without immunoglobulin M stimulation and without the test compound was regarded as the low value. According to the signal value in each well, the inhibition ratio (%) of each concentration of compounds was calculated, and the 205 model in XL-Fit 5.3 software (ID Business Solutions Limited) was used to obtain an IC50 value.
The inhibition ratio is calculated as follows: inhibition ratio (%)=100%−{(treating well for the test compound−negative control treating well)/(control treating well for anti-human immunoglobulin M−negative control treating well)}×100%, wherein, […]

[2] = Drug concentration in plasma of mice of the B cell activation study; assay type: in vivo; conditions: C57BL/6, plasma; mouse, 5 mg/kg oral, 16 h after administration
Procedure: The animals of each group were administered, then were placed in CO2 for anesthesia at designated time points, blood samples were taken from […] via retro-orbital bleeding, and heparin was used for anticoagulation; 90 μL of whole blood was taken from mice of each group, and added to a 96 well culture plate, and anti-mouse IgD antibody (BIO-RAD, Cat #MCA4693) was added to each well to a final concentration of 0.01 μg/μL (respectively for each drug-treated group and anti-IgD antibody-inducted vehicle group); in addition, 90 μL of whole blood of mice in the vehicle group was taken and added to the 96-well culture plate, and PBS (phosphate buffer, GIBCO, Cat # C20012500BT) was added to each well to a final concentration of 0.01 μg/μL (namely, the vehicle control group); Each group was mixed well and incubated in a 37° C./5% CO2 incubator for 4 hours. In addition, the blood of mice in the drug-treated group was centrifuged to separate plasma for blood concentration analysis.

[3] = tested on: CIA (collagen induced arthritis) rats; assay: Rat arthritis model induced by type II collagen (CIA); assay type: in vivo; conditions: compared with vehicle control group
Procedure: An appropriate amount of bovine type II collagen (CII, Chondrex (Redmond, Wash., USA), Cat #20021) was weighed and dissolved in 0.1 mole of acetic acid (SPGC Sinopharm Chemical Reagent Co., Ltd (Shanghai, P.R. China), Cat #: 10000218.), which was formulated into a solution with a concentration of 6 mg/mL, stirred at 4° C. overnight, and added with an equal volume of Freund's incomplete adjuvant (Sigma-Aldrich.(St. Louis, Mo., USA), Cat #: SLBW0366.), fully emulsified to prepare an emulsion with a CII concentration of 3 mg/mL.
Female Lewis rats were purchased from Beijing Vital River Laboratory Animal Technology Co., Ltd. (certificate number 20200928Aazz0619000579, initial body weight of 110-130 grams), and 6 rats were randomly selected as a normal group; and all of the remaining rats were immunized. In the first immunization on day 0, the rats except those in the normal group were anesthetized with isoflurane (Hebei Yipin Pharmaceutical Co., Ltd., Lot: C002170601.), and then disinfected with 75% alcohol, and 0.2 mL of emulsion was injected intradermally at the base of the tail thereof. A second challenge was carried out on day 7, and 0.2 mL of emulsion was intradermally injected using the same method. Once the animals developed symptoms on day 10, the incidence conditions thereof were closely monitored.
After grouping, the normal group was not administered, and the rats in the other groups were administered with the control vehicle, 0.25 mg/kg and 4 mg/kg of the reference GDC-0853, and each dose of compound 1 orally once a day until the end of the experiment.
The paw volume was measured on day 10 after immunization, and the left and right hind paw volumes (V) were measured every day after the paw volume increase was detected.
The arthrosis paw volumes of the left and right hind limbs of each animal were measured, and the average paw volume (APV) was calculated according to the following formula: Average paw volume APV=(Vleft+Vright)/2
The average arthrosis paw volume of each animal before administration was used as the baseline (or considered 100% inhibition of inflammation). […]
The area under the curve (AUC) of the average paw volume swelling is the area under the curve of the arthrosis score swelling calculated by the trapezoid method, and the calculation formula is: AUCAPS=1/2×(APSd1+APSd2)×(d2−d1)+1/2×(APSd2+APSd3)×(d3−d2)+ . . . +1/2×(APSdn+APSd(n-1))×(dn−dn-1). […]
ED50 is calculated by XLfit software according to the AUC inhibition ratio of the area under the curve of the average paw volume swelling. […]

Chain of Phosphorylated BTK in Ramos cells (Q06187 whole entry): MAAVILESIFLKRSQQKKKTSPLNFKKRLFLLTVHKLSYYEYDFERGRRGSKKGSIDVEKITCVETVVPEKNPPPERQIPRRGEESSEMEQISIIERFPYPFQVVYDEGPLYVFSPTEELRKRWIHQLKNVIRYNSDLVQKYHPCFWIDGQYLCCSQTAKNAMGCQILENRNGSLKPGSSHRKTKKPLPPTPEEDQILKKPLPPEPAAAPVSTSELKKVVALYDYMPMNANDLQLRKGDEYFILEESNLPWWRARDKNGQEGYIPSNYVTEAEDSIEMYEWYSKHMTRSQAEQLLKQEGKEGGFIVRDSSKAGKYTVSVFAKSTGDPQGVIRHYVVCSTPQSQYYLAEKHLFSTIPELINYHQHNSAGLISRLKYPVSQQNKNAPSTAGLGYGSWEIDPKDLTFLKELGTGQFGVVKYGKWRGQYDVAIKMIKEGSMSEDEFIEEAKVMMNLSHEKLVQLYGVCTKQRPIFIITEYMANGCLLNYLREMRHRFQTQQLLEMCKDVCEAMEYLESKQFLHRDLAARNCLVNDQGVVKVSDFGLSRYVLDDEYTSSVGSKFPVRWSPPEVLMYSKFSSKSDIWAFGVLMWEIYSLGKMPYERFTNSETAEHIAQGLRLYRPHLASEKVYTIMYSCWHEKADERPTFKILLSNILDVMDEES

## C[C@H]1CN(C2COC2)C[C@H](C)N1c1ccc(Nc2cc(-c3ccnc(-n4ccn5c6c(cc5c4=O)CC(C)(C)C6)c3CO)cn(C)c2=O)nc1 [Compound 1, 2-(5-((5-((2S,6S)-2,6-dimethyl-4-(oxetan-3-yl)piperazin-1-yl)pyridin-2-yl)amino)-3′-(hydroxymethyl)-1-methyl-6-oxo-1,6-dihydro-[3,4′-bipyridin]-2′-yl)-7,7-dimethyl-7,8-dihydro-2H-cyclopenta[4,5]pyrrolo[1,2-a]pyrazin-1(6H)-one]
[1]
  IC50: 5 nM
[2]
  concentration at 16 h: 6.27 ± 1.68 ng/mL
[3]; 0.25 mg/kg oral QD
  effect on paw volume: significantly increase the continuous improvement of paw volume swelling
[3]; 4 mg/kg oral QD
  effect on paw volume: significantly increase the continuous improvement of paw volume swelling
